# Test results from US12390435B2, “Electrophiles and electrophile pro-drugs as RAD51 inhibitors” (University of Pittsburgh—Of the Commonwealth System of …, priority 2018, dated 2025).
# How the values were obtained:
# MCF-10A cells = assay: GSH and GSSG LC-MS/MS; format: cell-based; settings: 5 μM, 0 to 12 hr
# Method: (§1) MCF-10A, MDA-MB-231, and MDA-MB-468 cells were seeded in 24-well plates at a density of 3×10^5 cells/well. […] At each time point, cell media was aspirated and washed 2 times with sterile PBS. Cells were then incubated with PBS containing 25 mM N-ethylmaleimide (NEM) for 15 min at 37° C. Derivatizing solution (50 μL of 15% MeOH, 40 mM HEPES, 50 mM NaCl, 1 mM EDTA, 2 μM [^13C2^15N]-GSH, 2 μM [^13C4^15N2]-GSSG, and 25 mM NEM) was added to each well and incubated for 15 min at room temperature. Next, 50 μL, of 10% (w/v) sulfosalicylic acid solution was immediately added to each well to stabilize GSH and GSSG. Supernatant was collected by centrifugation at 15,000 RPM for 10 min at 4° C. Samples were diluted 1:5 in 5% sulfosalicylic acid and 20 μL, was injected for HPLC-MS/MS analysis. Cell numbers at time 0 hr were quantitated by Hoechst 33258 DNA stain assay and used to normalized GSH or GSSG levels expressed as nmol/cells (×10^6).
# (§2) Samples were applied to the column at 30% B and eluted with a linear increase in solvent B (30-100% in 9.7 min). The column was washed at 100% B for 3 min before returning to initial conditions for equilibration (2 min). […] Sample [GSH] and [GSSG] were determined from analyte:I.S. area ratios, and intracellular GSH and GSSG were normalized to cell number (10^6), with results expressed as nmol GSH or GSSG per 10^6 cells.
# [1] = tested on: MDA-MB-231 and MDA-MB-468 cells; assay: GSH and GSSG LC-MS/MS; format: cell-based; settings: 5 μM, 0 to 12 hr
# Method: as §1, §2
# RAD51 = assay: Biotinylated nitro fatty acid affinity capture of RAD51; format: binding; settings: 293T cells expressing WT or mutant RAD51
# Method: HEK 293T were transiently transfected with Fugene 6 (Promega) and 5 μg RAD51 expressing vectors (wild-type, C312S, or C319S). […] Cells were prepared as above. […] Detection of RAD51 was accomplished by immunoblot with RAD51 antibody (1:2000) with actin antibody (1:3000) probed as loading control.
# MDA-MB-231 cells = assay: Cell cycle analysis with propidium iodide; format: cell-based; settings: 5 μM NO2-OA versus DMSO
# Method: Samples were analyzed at the Flow Cytometry Core at MWRI utilizing a BD LSRII (BD).
# [2] = tested on: MDA-MB-231 orthotopic tumor; assay: Orthotopic MDA-MB-231 tumor model, 15 mg/kg gavage; format: in vivo, mice
# Method: Animals used for this study were approved by and conducted according to the guidelines of the University of Pittsburgh IACUC. MDA-MB-231 cells (0.5×106) were injected into the mammary fat pad (left 4th gland) of 6-wk-old female nude mice in a volume of 20 μL sterile saline. When tumors reached an average volume of 100 mm^3, mice were treated with OA+vehicle (n=8), OA-NO2+vehicle (n=7), OA+talazoparib (0.3 mg/kg) (n=10) or OA-NO2 (15 mg/kg)+talazoparib (n=11). Tumor volume was measured by caliper over time in P-values: *<0.01, ***<0.001, ****<0.0001. The surgical procedure has been previously described.
# Whether NO2-OA could also enhance TNBC DNA damage in vivo was also assessed. […] (FIG. 1B). […] This response became statistically significant after Grubbs outlier detection and elimination of OA treated mouse #2. The orthotopic tumor in OA mouse #2 was the largest tumor in the study, with necrosis potentially causing enhanced γH2AX levels.
compound,measurement,setting,value
"CCCCCCCCC(=CCCCCCCCC(=O)O)[N+](=O)[O-] [NO2-OA, 10-nitro-octadec-9-enoic acid]",GSH:GSSG ratio after treatment,MCF-10A cells,maintained the GSH:GSSG ratio over the first 6 hr
same,GSH:GSSG ratio after treatment,[1],rapidly decreased
same,"RAD51 cysteine targeted (Cys312Ser, Cys319Ser mutants)",RAD51,preferential reaction of NO2-OA with Cys319
same,cell cycle changes,MDA-MB-231 cells,no significant changes to the cell cycle occurred
same,tumor γH2AX level by immunoblot,"[2]; 15 mg/kg by gavage for 4 wk, versus OA",higher levels of γH2AX
same,tumor growth rate,"[2]; 15 mg/kg by gavage for 4 wk, versus OA treated controls",significantly decreased tumor growth rates
same,tumor reduction / tumor volume in combination with talazoparib,[2]; NO2-OA 15 mg/kg + talazoparib 0.3 mg/kg versus either alone,significant greater tumor reduction compared to talazoparib or NO2-OA alone
